PMC11404609, “Gut microbiota-mediated C-sulfonate metabolism impairs the bioavailability and anti-cholestatic efficacy of andrographolide” (Gut Microbes, 2024)

Tests used:
[1] = Tissue distribution of AP and APM in mice; type: in vivo
Description: Control and ABX rats were orally administered a single dose of AP at 120 mg/kg. Control, ABX and germ-free C57BL/6J mice were orally administered a single dose of AP at 100 mg/kg. After 90 min of AP administration, all animals were euthanized, and blood and tissue samples were collected for subsequent analysis.
After 360 min of AP treatment, all mice were euthanized, and tissue samples were collected for subsequent analysis. […]
An ACQUITY^TM UPLC-MS/MS system equipped with an ACQUITY^TM UPLC BEH C18 Column (50 × 2.1 mm I.D., 1.7 μm, Waters, Milford, MA, USA) was utilized for the quantification of AP and APM as previously described.[47] Briefly, the detection samples (50 μL) were mixed with 50 μL of IS (50 ng/mL). AP and APM were extracted by 400 μL cold methanol. Supernatants were dried under nitrogen stream. Then, the residue was dissolved with 50% methanol in water, centrifuged for 30 min at 13,000 rpm, and 10 µL of the supernatant was subjected to UPLC-MS/MS analysis. The mobile phases consisted of eluent A (water) and eluent B (methanol) with a gradient elution as follows: 0–0.8 min, 10% B; 0.8–1.2 min, 10–90% B; 1.2–5.0 min, 90% B; 5.0–5.5 min, 90–10% B; 5.5–7.0 min, 10% B. The flow rate was 0.3 mL/min and the injection volume of all samples was 10 μL. The quantification of AP, APM and IS was performed by UPLC-MS/MS using an MRM method with the transitions of m/z 349.1→m/z 287.2 for AP, m/z 413.2→m/z 287.2 for APM, m/z 269→m/z 133 for IS.
AP was administered intravenously and orally to detect the production of the C-sulfonate metabolite APM. In tissue distribution experiment, rats were given AP intravenously (24 mg/kg) or orally (120 mg/kg), while mice received AP intravenously (20 mg/kg) or orally (100 mg/kg). After a 90-minute interval, the animals were sacrificed, and their liver, kidneys, small intestine, and colon were collected for analysis. In pharmacokinetic studies, rats were administered 24 mg/kg of AP intravenously or 120 mg/kg of AP by oral gavage. Blood samples were collected at predetermined time intervals (0, 5, 10, 20, 30, 40, 60, 90, 120, 180, 240, 360, and 480 min), as described, to detect the content of AP and APM by UPLC-MS/MS.

SULTs = experiment: AP incubation with liver S9 fraction (SULT-mediated metabolism); type: in vitro ADME, human, rat, mouse; details: HLS9, RLS9, MLS9 with PAPS, 37°C
Description: A sulfonate reaction system and incubation procedures were followed those of a previous study^4. Briefly, the reaction mixture (total volume 200 μL) consists of 10 μL enzymes (MLS9, RLS9 and HLS9 at different concentrations), 5 μL magnesium chloride (1 mM), 5 μL 3’-phosphoadenosine-5’-phosphosulfate (PAPS, 0.05 mM), 178 μL potassium phosphate (KPI) buffer (44.5 mM, pH 7.4) and 2 μL AP at different concentrations. The mixture was prepared in triplicates and incubated in a shaking water bath at 37°C for various durations. The reactions were terminated by the addition of acetonitrile solution.

[2] = In-situ single-pass intestinal perfusion of AP; type: in vivo; details: rats, AP 20 μM co-perfused with Na2SO4 40 μM vs AP alone
Description: The rat intestinal perfusion experiment was conducted based on previous literature reports^6, 7. The experimental animals were divided into two groups: Control and SO4^2- groups. Rats were anaesthetised via the intraperitoneal injection of 50% urethane at a dose of 2.4 mL/kg. Two segments of the intestine, specifically the duodenum and jejunum, each measuring 5-10 cm in length, were cannulated simultaneously. The primary tube was affixed to a syringe controlled by an infusion pump (Model PHD2000 Harvard Apparatus, Cambridge, Massachusetts). The inlet cannula was insulated and maintained in a constant temperature of 37°C in circulating water bath to ensure the perfusate’s thermal stability. Following the surgical procedure, the two segments of Control group were perfused with 20 μM AP, and the two segments of SO4^2- group were co-perfused with AP (20 μM) and Na2SO4 (40 μM). The perfusion was conducted at the flow rate of 0.17 mL/min and perfusate samples were collected every 15 min (15, 30, 45, 60, 75, and 90 min). The concentrations of AP and APM in the perfusate at the outlet were determined through UPLC-MS/MS analysis.

gut microbiota = experiment: Shotgun metagenomic sequencing of cecum samples after AP treatment; type: in vivo; details: mice cecum, AP 400 mg/kg, oral, 14 d
Description: Shotgun metagenomic sequencing was performed using cecum samples from mice after AP treatment (400 mg/kg, oral, 14 d). DNA was extracted by a PF Mag-Bind DNA Kit (Omega Bio-tek, USA) and qualified by 1% Agarose gel electrophoresis. Extracted DNA was fragmented by Covaris M220 (Gene Company Limited, China) and screened at approximately 400 bp fragments for paired-end library construction. NEXTFLEX® Rapid DNA-Seq (Bioo Scientific, USA) was used to build paired-end library construction. The Illumina NovaSeq 6000 (Illumina, USA) sequencing platform was used for metagenomic sequencing. Fastp was used to perform quality cropping on the adapter sequences of the 3’ and 5’ ends of reads, preserving high-quality paired-end reads and single-end reads. BWA (version 0.7.17) was used to construct the reads with the host DNA sequence and remove contaminated reads with high alignment similarity. MEGAHIT (version 1.1.2) was used to splice and assemble the optimized sequence. SOAP aligner (version soap2.21release) was used to compare the high-quality reads of each sample with the non-redundant gene set (95% identity) and calculate the abundance information of genes in the corresponding samples. DIAMOND (version 2.0.11) was used to annotate species taxonomy, and KEGG function. Data was deposited into the NCBI Sequence Read Archive (SRA) database.

## C=C1CC[C@@H]2[C@](C)(CO)[C@H](O)CC[C@@]2(C)[C@@H]1C/C=C1/C(=O)OC[C@H]1O [AP, Andrographolide]
[1]; ABX-treated mice vs Control, AP 100 mg/kg oral
  concentration of AP in tissues: notably increased
[1]; germ-free mice, AP 100 mg/kg oral
  C-sulfonate metabolism of AP: suppressed
[1]; mice colonized with D. piger vs Control, AP 100 mg/kg p.o.
  AP concentration in tissues such as the liver: notable reduction
[1]; mice of pharmacological experiment, AP 200 mg/kg, following ABX treatment vs Control
  concentration of AP in the intestine and liver: significantly increased
[1]; mice, AP 100 mg/kg p.o., Na2SO4 pre-treatment vs Control
  AP levels in mouse tissues: decreased AP levels
[1]; mice, AP 100 mg/kg p.o., bromocriptine mesylate pre-treatment vs Control
  AP levels in mouse tissues: elevated AP levels
[1]; mice, AP 200 mg/kg p.o. with APS reductase inhibitor vs without
  AP exposure within the small intestine and liver: increase in AP exposure
SULTs
  production of the metabolite APM in SULT-mediated metabolism incubation system: absence of detectable production
[2]
  AP C-sulfonate metabolism: substantial increase
Gut microbiota
  expression of APS reductase / growth of APS reductase-producing gut microbiota: did not induce significant alterations
  expression of Enterococcus, Lactobacillus, and Escherichia bacteria: did not suppress
